Reference: ChEMBL document CHEMBL3885861, “Open TG-GATES”

Species: Rattus norvegicus
Test: Open TG-GATES - Regimen: Single
Assay type: toxicity, organism-based, Sprague-Dawley
Design: regimen Single, gender Male, age 6 weeks
Details: in vivo, po, 100 mg/kg, route gavage, dose level Low; for APTT / Bas / Eos / Fbg / Hb / Ht / Lym / MCH / MCHC / MCV / Mono / Neu / PT / Plat / RBC / Ret / WBC: tissue Blood; for KIDNEY_L / KIDNEY_R / KIDNEY_TOTAL: tissue Kidney; for LIVER: tissue Liver; for A/G / ALP / ALT / AST / BUN / CRE / Ca / Cl / DBIL / GLC / IP / K / LDH / Na / PL / RALB / TBIL / TC / TG / TP / gamma-GTP: tissue Plasma

CCOC(=O)CCC(=O)O[C@H]1[C@H](O[C@@H]2[C@@H](C)[C@H](O[C@H]3C[C@@](C)(OC)[C@@H](O)[C@H](C)O3)[C@@H](C)C(=O)O[C@H](CC)[C@@](C)(O)[C@H](O)[C@@H](C)C(=O)[C@H](C)C[C@@]2(C)O)O[C@H](C)C[C@@H]1N(C)C [ERYTHROMYCIN ETHYLSUCCINATE]
TERMINAL_BW (3 h): 214.5 g
APTT (3 h): 22.9 s
Bas (3 h): 0%
Eos (3 h): 0.8%
Fbg (3 h): 311.4 mg/dL
Hb (3 h): 13.2 g/dL
Ht (3 h): 39.7%
Lym (3 h): 77.4%
MCH (3 h): 21.4 pg
MCHC (3 h): 33.2%
MCV (3 h): 64.4 fL
Mono (3 h): 2.6%
Neu (3 h): 18.6%
PT (3 h): 16.2 s
Plat (3 h): 111.6 x10_4/uL
RBC (3 h): 617.6 x10_4/ul
Ret (3 h): 8.2%
WBC (3 h): 78.3 x10_2/uL
KIDNEY_L (3 h): 0.9 g
KIDNEY_R (3 h): 1 g
KIDNEY_TOTAL (3 h): 1.9 g
LIVER (3 h): 9.9 g
A/G (3 h): 1.2
ALP (3 h): 1930.6 IU/L
ALT (3 h): 47.6 IU/L
AST (3 h): 78 IU/L
BUN (3 h): 12.8 mg/dL
CRE (3 h): 0.1 mg/dL
Ca (3 h): 10.5 mg/dL
Cl (3 h): 102.8 meq/L
DBIL (3 h): 0.006 mg/dL
GLC (3 h): 189.2 mg/dL
IP (3 h): 9.1 mg/dL
K (3 h): 3.8 meq/L
LDH (3 h): 147.2 IU/L
Na (3 h): 139.2 meq/L
PL (3 h): 142.6 mg/dL
RALB (3 h): 2.9 g/dL
TBIL (3 h): 0.02 mg/dL
TC (3 h): 73 mg/dL
TG (3 h): 70.2 mg/dL
TP (3 h): 5.5 g/dL
gamma-GTP (3 h): 1 IU/L
TERMINAL_BW (6 h): 213.8 g
APTT (6 h): 22.8 s
Bas (6 h): 0%
Eos (6 h): 0.8%
Fbg (6 h): 308 mg/dL
Hb (6 h): 13.2 g/dL
Ht (6 h): 39.8%
Lym (6 h): 76.6%
MCH (6 h): 20.9 pg
MCHC (6 h): 33.1%
MCV (6 h): 63.4 fL
Mono (6 h): 2.6%
Neu (6 h): 18.8%
PT (6 h): 16 s
Plat (6 h): 118.8 x10_4/uL
RBC (6 h): 628 x10_4/ul
Ret (6 h): 7.8%
WBC (6 h): 108.5 x10_2/uL
KIDNEY_L (6 h): 1 g
KIDNEY_R (6 h): 1 g
KIDNEY_TOTAL (6 h): 2 g
LIVER (6 h): 9.2 g
A/G (6 h): 1.1
ALP (6 h): 1420.4 IU/L
ALT (6 h): 40.2 IU/L
AST (6 h): 72 IU/L
BUN (6 h): 12 mg/dL
CRE (6 h): 0.2 mg/dL
Ca (6 h): 10.5 mg/dL
Cl (6 h): 104 meq/L
DBIL (6 h): 0 mg/dL
GLC (6 h): 187.6 mg/dL
IP (6 h): 9.5 mg/dL
K (6 h): 4.2 meq/L
LDH (6 h): 182 IU/L
Na (6 h): 138 meq/L
PL (6 h): 132.2 mg/dL
RALB (6 h): 2.8 g/dL
TBIL (6 h): 0.02 mg/dL
TC (6 h): 69.8 mg/dL
TG (6 h): 63.4 mg/dL
TP (6 h): 5.3 g/dL
gamma-GTP (6 h): 1.2 IU/L
TERMINAL_BW (9 h): 216.4 g
APTT (9 h): 23.3 s
Bas (9 h): 0%
Eos (9 h): 1%
Fbg (9 h): 315 mg/dL
Hb (9 h): 13.3 g/dL
Ht (9 h): 40.4%
Lym (9 h): 80.4%
MCH (9 h): 21.5 pg
MCHC (9 h): 33%
MCV (9 h): 65 fL
Mono (9 h): 2%
Neu (9 h): 15.8%
PT (9 h): 15.6 s
Plat (9 h): 121.2 x10_4/uL
RBC (9 h): 622 x10_4/ul
Ret (9 h): 8%
WBC (9 h): 73.2 x10_2/uL
KIDNEY_L (9 h): 1 g
KIDNEY_R (9 h): 1.1 g
KIDNEY_TOTAL (9 h): 2.1 g
LIVER (9 h): 9.2 g
A/G (9 h): 1.2
ALP (9 h): 1398.8 IU/L
ALT (9 h): 32.4 IU/L
AST (9 h): 64 IU/L
BUN (9 h): 12.4 mg/dL
CRE (9 h): 0.1 mg/dL
Ca (9 h): 10.6 mg/dL
Cl (9 h): 105.4 meq/L
DBIL (9 h): 0 mg/dL
GLC (9 h): 188.8 mg/dL
IP (9 h): 9.5 mg/dL
K (9 h): 4.2 meq/L
LDH (9 h): 145.6 IU/L
Na (9 h): 138.6 meq/L
PL (9 h): 136 mg/dL
RALB (9 h): 3 g/dL
TBIL (9 h): 0.012 mg/dL
TC (9 h): 78.2 mg/dL
TG (9 h): 87.4 mg/dL
TP (9 h): 5.5 g/dL
gamma-GTP (9 h): 1.4 IU/L
TERMINAL_BW (24 h): 222.7 g
APTT (24 h): 21.4 s
Bas (24 h): 0%
Eos (24 h): 0.8%
Fbg (24 h): 326.2 mg/dL
Hb (24 h): 13.8 g/dL
Ht (24 h): 41.6%
Lym (24 h): 86.4%
MCH (24 h): 20.6 pg
MCHC (24 h): 33.2%
MCV (24 h): 62.2 fL
Mono (24 h): 3%
Neu (24 h): 8.2%
PT (24 h): 16 s
Plat (24 h): 122.9 x10_4/uL
RBC (24 h): 670 x10_4/ul
Ret (24 h): 6.7%
WBC (24 h): 102.3 x10_2/uL
KIDNEY_L (24 h): 0.9 g
KIDNEY_R (24 h): 1 g
KIDNEY_TOTAL (24 h): 1.9 g
LIVER (24 h): 9.5 g
A/G (24 h): 1.3
ALP (24 h): 1407.8 IU/L
ALT (24 h): 43.4 IU/L
AST (24 h): 70.4 IU/L
BUN (24 h): 14 mg/dL
CRE (24 h): 0.1 mg/dL
Ca (24 h): 10.6 mg/dL
Cl (24 h): 106.6 meq/L
DBIL (24 h): 0.002 mg/dL
GLC (24 h): 200.6 mg/dL
IP (24 h): 7.7 mg/dL
K (24 h): 4.1 meq/L
LDH (24 h): 183.2 IU/L
Na (24 h): 142.4 meq/L
PL (24 h): 140.4 mg/dL
RALB (24 h): 3.1 g/dL
TBIL (24 h): 0.03 mg/dL
TC (24 h): 83 mg/dL
TG (24 h): 71.6 mg/dL
TP (24 h): 5.5 g/dL
gamma-GTP (24 h): 1.4 IU/L
